According to patent US20110136897A1, “TOLL-LIKE RECEPTOR 9 AGONISTS FOR THE TREATMENT OF ANXIETY-RELATED DISORDERS AND INFLAMMATORY DISORDERS” (YISSUM RESEARCH DEVELOPMENT COMPANY OF THE HEBREW …, priority 2008, published 2011):

Tests used:
[1] = system: RAW264.7 cells; assay: Nitric oxide (NO) production, Griess reaction; format: cell-based, mouse; conditions: 24 hours
Method: The mouse macrophage cell line RAW 264.7 (ATCC, Bethesda, Md.) was cultured in Dulbecco's modified Eagle's medium (DMEM) (Biological Industries) supplemented with 10% heat-inactivated fetal bovine serum (Biological Industries, Israel), 100 μg/ml streptomycin, 100 U/ml penicillin (Sigma) and 2 mM 1-glutamine (Biological Industries) at 37° C. in a humidified atmosphere with 5% CO2.
Determination of nitric oxide (NO) production: Nitrite concentration in the medium of cultured cells was measured as an indicator of NO production according to the Griess reaction. 1×10^5 mouse RAW264.7 cells were grown in 0.5 ml medium in 48-wells plate until 80% confluence was obtained. […] (1% sulfanilamide, 0.1% naphthylethylenediamine dihydrochloride, 5% H3PO4). Absorbance was read at 540 nm after 10 min using SPECTRAFluor Plus spectrophotometer (TECAN, UK).
To further characterize the TLR9 activating features of mEN101, mEN101 was applied to RAW264.7 cells (n=4 repeats) for 24 hours and the subsequent production of inflammatory markers was quantified. […] Addition of chloroquine (CQ), a weak base that perturbs endosomal pH and thus disturbs endosomal maturation, as well as the specific TLR9 inhibiting oligonucleotides ODN2088 and ODN TTAGGG (17), all blocked the 10 μM mEN101-driven increases in NO (p<0.015) (FIG. 2A). Thus, both gain and loss of function tests validated the nature of mEN101 as an endosomally active TLR9 activator, albeit a weak one.

[2] = system: RAW264.7 cells; assay: RT-PCR of inflammatory genes in RAW264.7 cells (Table 2); format: cell-based, mouse
Method: Real-time PCR (RT-PCR): Brains were dissected and tissues stored frozen at −70° C. until use. Hippocampal RNA was extracted using the RNeasy Tissue Mini Kit (Qiagen, Germany). Total RNA was reverse-transcribed (200 ng) using Impromp-II reverse transcriptase (Promega, Madison, Wis.) as instructed. RT-PCR was performed using Power SYBR®Green PCR Master Mix (Applied Biosystems, UK) in a 7900 HT Sequence Detection System (Applied Biosystems, Foster City, Calif.). Quantification was assessed at the logarithmic phase of the PCR reaction. The PCR annealing temperature was 60° C. for all primer pairs. GAPDH was used as a house-keeping gene.
Shown are fold differences in RT-PCR products of RAW264.7 cells incubated with the noted doses of mEN101 or ODN1826. Note that ODN1826 affects IL1α, -1β, -6, -10, -12 and ICAM-1 gene expression at concentrations as low as 10 nM, whereas considerably higher doses of mEN101 are needed to attain similar effects. Nevertheless, mEN101 affects inflammatory gene expression even at 10 nM. 1 μg/ml LPS was used as positive control. (n=3, p<0.05 Mann-Whitney U-test compared to untreated controls, for all the data shown).

5′-TCCATGACGTTCCTGACGTT-3′ [ODN1826, reference compound]
concentration reaching saturation levels of NO production [1]: 100 nM | lowest concentration inducing massive NO production [1]: 10 nM | ICAM-1 RT-PCR product ([2]; 10 nM): −3.57 log2 from NT | IL1a RT-PCR product ([2]; 10 nM): 4.18 log2 from NT | IL1b RT-PCR product ([2]; 10 nM): 4.40 log2 from NT | IL6 RT-PCR product ([2]; 10 nM): 3.57 log2 from NT | IL10 RT-PCR product ([2]; 10 nM): 3.74 log2 from NT | IL12 RT-PCR product ([2]; 10 nM): 3.57 log2 from NT | ICAM-1 RT-PCR product ([2]; 100 nM): −3.14 log2 from NT | IL1a RT-PCR product ([2]; 100 nM): 5.33 log2 from NT | IL1b RT-PCR product ([2]; 100 nM): 5.63 log2 from NT | IL6 RT-PCR product ([2]; 100 nM): 3.71 log2 from NT | IL10 RT-PCR product ([2]; 100 nM): 4.28 log2 from NT | IL12 RT-PCR product ([2]; 100 nM): 4.28 log2 from NT
